Our source for the MIC and MBC values is patent publication US11691949B2, “Quinoline sulfonamide compounds and their use as antibacterial agents” (OTAGO INNOVATION LIMITED, priority 2017, dated 2023).

Converted amounts (≈) assume the structure as drawn. Where two headings read alike, the source gives them in different places. Some results are limits rather than exact numbers.

Format in all cases: cell-based
Experiment [1] relates to S. aureus ATCC 6538. The experiment can be described thus: MIC by broth microdilution, S. aureus. The conditions noted are these: Staphylococcus aureus, read-out: S. aureus ATCC 6538 MIC. Summed up: (§1)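 Two-fold serial dilutions were tested in broth at ~5×10^5 cfu/mL: S. aureus in TSB or CAMHB, E. coli in LB or CAMHB, with 50 μM zinc sulphate added as required. After 24 h at 37° C, 200 rpm, MIC was the lowest concentration showing no growth by OD600.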
On the technique in general: Broth dilution looks for growth in wells or tubes with falling amounts of substance.

Experiment [2] deals with E. coli ATCC 10596. Description: MIC by broth microdilution, E. coli. The conditions noted are these: Escherichia coli, read-out: E. coli ATCC 10536 MIC. The procedure, abridged: as §1
Experiment [3] has as its system E. coli ATCC 10536. The experiment can be described thus: MBC by Miles-Misra drop-plate method, E. coli. The conditions noted are these: Escherichia coli, read-out: E. coli ATCC 10536 MBC. The procedure, abridged:
(§2)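 Overnight cultures diluted to ~5×10^5 cfu/mL final; S. aureus in TSB and CAMHB, E. coli in LB and CAMHB, zinc sulphate to 50 μM final as required; two-fold serial dilutions. MIC = lowest concentration with no growth by OD600 after 24 h, 37° C, 200 rpm. MBC by Miles-Misra drop-plate viability count.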

For experiment [4], the system named is S. uberis ATCC 19436. The experiment can be described thus: MBC by Miles-Misra drop-plate method, S. uberis. As to conditions: Streptococcus uberis, read-out: S. uberis ATCC 19436 MBC.
Experiment [5] deals with S. aureus ATCC 6538. The experiment can be described thus: MBC by Miles-Misra drop-plate method, S. aureus. As to conditions: Staphylococcus aureus, read-out: S. aureus ATCC 6538 MBC. Summed up:
as §2

Experiment [6] has as its system S. uberis ATCC 19436. Description: MIC by broth microdilution, S. uberis. The conditions noted are these: Streptococcus uberis, read-out: S. uberis ATCC 19436 MIC. Summed up:
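The MIC against S. uberis ATCC 19436 was the lowest compound concentration showing no growth by OD600 after 24 h at 37° C. with 200 rpm shaking. Cultures grown overnight were adjusted to OD600 ~0.025 so wells held approximately 5×10^5 cfu/mL in THB. Two-fold dilution series were made at a final volume of 200 μl. Media and untreated controls were run in triplicate on each plate.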

`CN(C)Cc1ccc2cccc(NS(=O)(=O)c3ccc(Cl)cc3Cl)c2n1` [ZDR335, 2,4-Dichloro-N-(2-((dimethylamino)methyl)quinolin-8-yl)benzenesulfonamide]: the minimal inhibitory concentration (MIC) in experiment [1] (ATCC6538, No Zinc) was 32 µg/mL (≈ 78 µM); in experiment [1] (ATCC6538, Zinc (50 μM)), 8 µg/mL (≈ 19.5 µM); in experiment [2] (ATCC 10536 / ATCC 10596, No Zinc), over 256 µg/mL; in experiment [2] (ATCC 10536 / ATCC 10596, Zinc (50 μM)) it was over 256 µg/mL; in experiment [6] (ATCC19436, No Zinc) it was 64 µg/mL (≈ 156 µM); in experiment [6] (ATCC19436, Zinc (50 μM)), 0.0312 µg/mL (≈ 0.076 µM). The MBC was over 256 µg/mL in experiment [3] (ATCC10536, No Zinc); over 256 µg/mL in experiment [3] (ATCC10536, Zinc (50 μM)); 64 µg/mL (≈ 156 µM) in experiment [4] (ATCC19436, No Zinc); 2 µg/mL (≈ 4.87 µM) in experiment [4] (ATCC19436, Zinc (50 μM)); over 256 µg/mL in experiment [5] (ATCC6538, No Zinc); over 256 µg/mL in experiment [5] (ATCC6538, Zinc (50 μM)).

In general, MIC refers to the lowest concentration that inhibits growth of the organism. A word on the MBC: it is the smallest concentration meeting the test's criterion for killing.
